The source of these data is ChEMBL document CHEMBL1201862, “PubChem BioAssay data set” (2004).

The structures appear in SMILES notation. Activity calls are given as the source filed them. Some results are limits rather than exact numbers.

The nature of assay [1]: inhibitors of intracellular T. cruzi replication, confirmation, NIH3T3 host cells, beta-gal luminescence (AID 2044).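 Also: intracellular parasites grown in NIH/3T3 mouse fibroblasts as host cells; luminescent beta-galactosidase reporter signal from transgenic T. cruzi replicating inside host cells; inhibitors lower the luminescence signal.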 In kind it is functional, cell-based.
The nature of assay [2]: cytotoxicity toward NIH3T3 fibroblasts, dose response, counter-screen, cell-based, ATP luminescence, mouse fibroblasts (AID 2010).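 Also: cells exposed to compound for about 90 hours before reading.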 In kind it is functional. A general note: Counterscreens check selectivity or assay interference.
Assay [3] in a line: M. tuberculosis H37Rv growth inhibitors, H37Rv strain (AID 1626). In kind it is functional.
Assay [4] deals with Estrogen receptor beta (Homo sapiens, UniProt Q92731).
Sequence of Estrogen receptor beta (Q92731 whole entry): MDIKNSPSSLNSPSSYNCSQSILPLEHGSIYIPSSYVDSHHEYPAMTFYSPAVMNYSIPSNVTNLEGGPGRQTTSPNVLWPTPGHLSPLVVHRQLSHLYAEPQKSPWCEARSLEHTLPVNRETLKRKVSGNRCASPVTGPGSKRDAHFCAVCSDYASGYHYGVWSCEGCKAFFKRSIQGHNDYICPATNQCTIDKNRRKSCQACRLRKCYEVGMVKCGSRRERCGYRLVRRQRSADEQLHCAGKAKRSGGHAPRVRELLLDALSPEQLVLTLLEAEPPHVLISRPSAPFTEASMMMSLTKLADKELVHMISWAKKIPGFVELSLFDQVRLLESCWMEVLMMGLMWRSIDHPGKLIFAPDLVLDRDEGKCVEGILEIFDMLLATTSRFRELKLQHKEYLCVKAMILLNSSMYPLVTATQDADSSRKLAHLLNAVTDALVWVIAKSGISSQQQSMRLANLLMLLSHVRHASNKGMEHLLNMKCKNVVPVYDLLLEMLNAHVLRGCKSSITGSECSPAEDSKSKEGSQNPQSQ
The target in assay [5] is T1, Caspase-3 (Homo sapiens, UniProt P42574).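 Also: Dose-response selectivity test against caspase-3 for candidate inhibitors of sentrin-specific proteases (SENPs).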
T1 sequence (P42574 whole entry): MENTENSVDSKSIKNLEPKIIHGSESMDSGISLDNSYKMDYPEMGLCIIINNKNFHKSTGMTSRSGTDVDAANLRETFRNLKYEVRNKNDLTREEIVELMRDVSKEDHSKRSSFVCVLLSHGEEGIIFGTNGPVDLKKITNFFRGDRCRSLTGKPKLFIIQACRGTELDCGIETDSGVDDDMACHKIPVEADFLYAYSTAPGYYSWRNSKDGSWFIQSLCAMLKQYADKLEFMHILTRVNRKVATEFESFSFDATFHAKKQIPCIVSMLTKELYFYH
In kind it is functional.

The target of assay [6] is T2, Sentrin-specific protease 8 (Homo sapiens, UniProt Q96LD8).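 Also: luminescence read-out of SENP8 inhibition, dose-response confirmation following an ultra-high-throughput screen.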
T2 sequence (Q96LD8 whole entry): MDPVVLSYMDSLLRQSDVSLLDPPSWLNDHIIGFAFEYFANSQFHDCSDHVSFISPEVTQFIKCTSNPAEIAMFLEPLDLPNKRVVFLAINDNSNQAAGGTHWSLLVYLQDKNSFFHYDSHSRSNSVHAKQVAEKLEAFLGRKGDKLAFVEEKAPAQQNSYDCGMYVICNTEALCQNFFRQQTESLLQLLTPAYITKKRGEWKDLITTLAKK
In kind it is functional.

The target of assay [7] is T3, Sentrin-specific protease 6 (Homo sapiens, UniProt Q9GZR1).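 Also: Luminescence-based dose-response confirmatory assay of SENP6 inhibition, following up an ultra-high-throughput screen.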
T3 sequence (Q9GZR1 whole entry): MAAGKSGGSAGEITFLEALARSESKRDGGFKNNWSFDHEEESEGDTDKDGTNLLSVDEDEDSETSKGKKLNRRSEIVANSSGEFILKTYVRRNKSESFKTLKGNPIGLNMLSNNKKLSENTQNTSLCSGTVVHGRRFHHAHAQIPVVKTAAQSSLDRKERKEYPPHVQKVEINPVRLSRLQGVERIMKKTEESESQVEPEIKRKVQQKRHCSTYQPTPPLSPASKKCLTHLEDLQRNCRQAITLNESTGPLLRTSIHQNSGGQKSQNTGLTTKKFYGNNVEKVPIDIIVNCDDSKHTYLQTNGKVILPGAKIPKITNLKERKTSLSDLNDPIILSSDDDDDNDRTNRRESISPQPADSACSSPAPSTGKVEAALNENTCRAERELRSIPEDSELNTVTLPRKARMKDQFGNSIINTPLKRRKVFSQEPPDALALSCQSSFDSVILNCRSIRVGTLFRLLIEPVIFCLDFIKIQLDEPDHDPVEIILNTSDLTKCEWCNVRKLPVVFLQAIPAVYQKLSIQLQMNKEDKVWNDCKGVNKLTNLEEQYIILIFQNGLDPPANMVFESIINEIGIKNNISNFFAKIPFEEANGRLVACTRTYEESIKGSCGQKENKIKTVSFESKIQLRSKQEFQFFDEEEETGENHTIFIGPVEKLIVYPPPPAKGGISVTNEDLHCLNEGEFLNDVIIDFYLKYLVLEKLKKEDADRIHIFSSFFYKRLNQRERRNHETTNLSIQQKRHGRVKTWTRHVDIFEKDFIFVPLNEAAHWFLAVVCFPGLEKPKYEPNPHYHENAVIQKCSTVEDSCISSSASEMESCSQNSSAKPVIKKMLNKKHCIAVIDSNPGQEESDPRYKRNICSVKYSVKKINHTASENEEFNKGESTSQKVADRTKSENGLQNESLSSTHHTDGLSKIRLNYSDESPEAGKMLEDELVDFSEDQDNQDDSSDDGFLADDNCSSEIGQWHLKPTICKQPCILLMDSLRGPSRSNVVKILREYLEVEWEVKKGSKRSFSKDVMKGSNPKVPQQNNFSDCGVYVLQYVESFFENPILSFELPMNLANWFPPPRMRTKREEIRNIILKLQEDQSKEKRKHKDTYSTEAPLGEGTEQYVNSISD
In kind it is functional.

Assay [8] has as its target NAD-dependent protein deacylase sirtuin-5, mitochondrial (Homo sapiens, UniProt Q9NXA8). Put plainly: SIRT5 desuccinylase inhibitors, dose response, biochemical, fluorescence imaging, cherry-pick, set 5 (AID 720591).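 Also: desuccinylation of succinyl peptide AMC substrate read as fluorescence after trypsin release; potency of inhibitors that lower fluorescence and may act on trypsin instead.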
Assay [9] concerns the target T4, Sentrin-specific protease 7 (Homo sapiens, UniProt Q9BQF6).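 Also: Luminescence-based dose-response confirmation of ultra-high-throughput screening hits, measuring inhibition of SENP7.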
T4 sequence (Q9BQF6 whole entry): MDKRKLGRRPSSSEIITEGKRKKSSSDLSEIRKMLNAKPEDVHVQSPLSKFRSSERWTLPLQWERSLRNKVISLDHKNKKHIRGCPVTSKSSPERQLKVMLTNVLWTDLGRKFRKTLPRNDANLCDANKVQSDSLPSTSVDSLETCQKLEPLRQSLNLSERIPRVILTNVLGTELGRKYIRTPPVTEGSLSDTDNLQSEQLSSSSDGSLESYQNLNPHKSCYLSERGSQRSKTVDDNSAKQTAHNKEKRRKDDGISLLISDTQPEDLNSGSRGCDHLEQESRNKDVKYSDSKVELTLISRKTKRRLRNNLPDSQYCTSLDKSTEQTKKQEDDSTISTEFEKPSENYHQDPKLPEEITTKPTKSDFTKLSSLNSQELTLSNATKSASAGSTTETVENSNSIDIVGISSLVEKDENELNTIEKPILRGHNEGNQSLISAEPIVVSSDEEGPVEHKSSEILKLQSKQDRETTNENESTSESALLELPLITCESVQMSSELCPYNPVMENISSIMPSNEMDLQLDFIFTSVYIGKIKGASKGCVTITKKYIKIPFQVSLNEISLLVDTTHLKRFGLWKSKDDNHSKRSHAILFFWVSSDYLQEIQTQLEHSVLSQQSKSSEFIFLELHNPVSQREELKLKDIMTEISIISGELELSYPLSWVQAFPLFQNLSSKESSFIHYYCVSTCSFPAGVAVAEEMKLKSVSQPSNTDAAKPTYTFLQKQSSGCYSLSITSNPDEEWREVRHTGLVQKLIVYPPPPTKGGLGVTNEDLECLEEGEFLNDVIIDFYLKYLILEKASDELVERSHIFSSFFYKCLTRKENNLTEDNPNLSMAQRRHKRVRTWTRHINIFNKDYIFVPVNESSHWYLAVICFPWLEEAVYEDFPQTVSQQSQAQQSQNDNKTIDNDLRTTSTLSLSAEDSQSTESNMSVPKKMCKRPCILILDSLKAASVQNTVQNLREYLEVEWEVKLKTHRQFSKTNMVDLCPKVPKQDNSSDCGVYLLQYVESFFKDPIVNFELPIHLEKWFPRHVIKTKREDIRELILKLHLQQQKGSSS
In kind it is functional.

For assay [10], the target named is T5, Dual specificity protein phosphatase 6 (Rattus norvegicus, UniProt Q64346).
T5 sequence (Q64346 whole entry): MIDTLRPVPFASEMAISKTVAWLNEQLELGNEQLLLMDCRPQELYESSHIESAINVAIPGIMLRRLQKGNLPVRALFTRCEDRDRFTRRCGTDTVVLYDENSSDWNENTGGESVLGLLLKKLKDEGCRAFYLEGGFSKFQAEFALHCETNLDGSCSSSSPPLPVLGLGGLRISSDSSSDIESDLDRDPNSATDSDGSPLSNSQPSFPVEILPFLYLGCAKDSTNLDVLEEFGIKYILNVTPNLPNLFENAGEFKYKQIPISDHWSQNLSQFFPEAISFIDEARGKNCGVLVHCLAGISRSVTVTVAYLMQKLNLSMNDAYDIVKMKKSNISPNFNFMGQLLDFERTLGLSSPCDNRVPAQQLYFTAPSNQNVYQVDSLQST
The assay can be described thus: MKP-3 phosphatase inhibitors, primary screen, biochemical, rat enzyme, in vitro (AID 425).

For assay [11], the target named is Cytochrome P450 2C19 (Homo sapiens, UniProt P33261). The assay can be described thus: qHTS Assay for Inhibitors and Substrates of Cytochrome P450 2C19. [Related pubchem assays: 410 ]. In kind it is ADME. As to conditions: read-out: Potency. For orientation: In qHTS, concentration-response curves come from the screen itself.
Sequence of Cytochrome P450 2C19 (P33261 whole entry): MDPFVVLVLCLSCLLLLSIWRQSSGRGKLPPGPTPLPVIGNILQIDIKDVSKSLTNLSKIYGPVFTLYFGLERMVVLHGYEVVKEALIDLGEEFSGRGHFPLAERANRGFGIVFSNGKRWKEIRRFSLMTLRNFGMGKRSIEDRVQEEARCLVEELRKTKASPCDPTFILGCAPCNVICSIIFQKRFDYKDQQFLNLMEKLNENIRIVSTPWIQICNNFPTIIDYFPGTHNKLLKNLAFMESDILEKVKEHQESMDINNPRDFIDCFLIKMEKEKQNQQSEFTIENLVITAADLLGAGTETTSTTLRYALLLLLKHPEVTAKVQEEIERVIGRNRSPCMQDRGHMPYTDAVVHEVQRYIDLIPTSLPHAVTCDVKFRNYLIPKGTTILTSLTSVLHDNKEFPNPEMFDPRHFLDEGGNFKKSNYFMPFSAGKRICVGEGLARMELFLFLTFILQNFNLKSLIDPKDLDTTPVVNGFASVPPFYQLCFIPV
Assay [12] addresses T6, Oxysterols receptor LXR-beta (Homo sapiens, UniProt P55055).
T6 sequence (P55055 whole entry): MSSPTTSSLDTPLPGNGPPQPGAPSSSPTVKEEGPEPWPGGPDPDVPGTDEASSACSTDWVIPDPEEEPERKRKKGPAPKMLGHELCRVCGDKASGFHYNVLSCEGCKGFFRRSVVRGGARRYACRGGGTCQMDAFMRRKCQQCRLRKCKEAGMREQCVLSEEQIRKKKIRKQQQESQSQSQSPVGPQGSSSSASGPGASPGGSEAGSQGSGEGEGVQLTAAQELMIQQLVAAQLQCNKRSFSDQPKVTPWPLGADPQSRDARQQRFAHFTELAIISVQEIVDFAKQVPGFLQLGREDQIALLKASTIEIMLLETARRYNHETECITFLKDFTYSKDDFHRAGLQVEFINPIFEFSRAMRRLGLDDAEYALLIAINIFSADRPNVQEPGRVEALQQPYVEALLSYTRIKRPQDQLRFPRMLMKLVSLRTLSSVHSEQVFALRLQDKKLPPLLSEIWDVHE
Put plainly: LXR agonists, Gal4 luciferase reporter, dose response, counter-screen for ssDAF-12 agonist project, cell-based, luminescence, HEK293, S. stercoralis campaign (AID 720737). As to conditions: read-out: IC50 (the source's name). In kind it is functional.

Assay [13] is described as follows: Luminescence-based cell-based high throughput dose response assay to identify activators of the DAF-12 from the parasite S. stercoralis (ssDAF-12). In kind it is functional.
Assay [14] addresses T7, Ubiquitin-conjugating enzyme E2 N (Homo sapiens, UniProt P61088).
T7 sequence (P61088 whole entry): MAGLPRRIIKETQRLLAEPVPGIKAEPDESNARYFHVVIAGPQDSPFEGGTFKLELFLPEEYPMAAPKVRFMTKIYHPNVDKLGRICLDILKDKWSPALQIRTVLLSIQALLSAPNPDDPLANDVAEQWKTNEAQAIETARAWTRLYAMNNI
In kind it is functional.

Assay [15] addresses T8, Bcl-2-related protein A1 (Mus musculus, UniProt Q07440).
T8 sequence (Q07440 whole entry): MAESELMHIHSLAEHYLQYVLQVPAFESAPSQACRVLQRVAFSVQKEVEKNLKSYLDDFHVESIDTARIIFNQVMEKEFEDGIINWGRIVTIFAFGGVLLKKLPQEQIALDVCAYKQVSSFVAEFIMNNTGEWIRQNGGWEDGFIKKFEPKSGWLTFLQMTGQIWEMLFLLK
In kind it is functional.

Assay [16] in a line: cells.
In assay [17] the target is T7, Ubiquitin-conjugating enzyme E2 N. In kind it is functional. The source holds these as a separate data set.
Assay [18] has as its target Protein Tat (Human immunodeficiency virus type 1 group M subtype B (isolate HXB2)(HIV-1), UniProt P04608). In kind it is functional.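 Also: tat binding to TAR RNA read out by fluorescence polarization.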
The nature of assay [19]: inhibitors of Vif binding to APOBEC3G peptide, primary screen, biochemical, TR-FRET, GST-Vif 1-94, biotin-A3G peptide, dose response retest (AID 1117319).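 Also: inhibitors lower the FRET signal by blocking Vif and A3G binding.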 In kind it is functional. On the technique in general: In TR-FRET formats the signal depends on donor and acceptor labels being close together.
For assay [20], the target named is Mitogen-activated protein kinase 10 (Homo sapiens, UniProt P53779). Put plainly: Dose response biochemical screening assay for inhibitors of c-Jun N-Terminal Kinase 3 (JNK3). [Related pubchem assays: 746 ].
Sequence of Mitogen-activated protein kinase 10 (P53779 whole entry): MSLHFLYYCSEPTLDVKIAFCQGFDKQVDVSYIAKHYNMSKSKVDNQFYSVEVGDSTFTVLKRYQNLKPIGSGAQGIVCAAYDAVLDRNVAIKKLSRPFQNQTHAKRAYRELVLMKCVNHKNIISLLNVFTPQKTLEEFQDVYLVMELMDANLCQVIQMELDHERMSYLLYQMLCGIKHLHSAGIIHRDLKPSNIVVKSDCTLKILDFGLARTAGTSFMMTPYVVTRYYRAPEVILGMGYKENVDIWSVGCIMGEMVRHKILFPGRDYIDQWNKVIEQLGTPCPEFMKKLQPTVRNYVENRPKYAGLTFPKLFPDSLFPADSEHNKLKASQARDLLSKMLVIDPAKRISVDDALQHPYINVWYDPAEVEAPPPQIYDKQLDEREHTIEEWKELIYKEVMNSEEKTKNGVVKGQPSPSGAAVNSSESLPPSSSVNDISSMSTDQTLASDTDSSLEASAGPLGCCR

Sequence of NAD-dependent protein deacylase sirtuin-5, mitochondrial (Q9NXA8 whole entry): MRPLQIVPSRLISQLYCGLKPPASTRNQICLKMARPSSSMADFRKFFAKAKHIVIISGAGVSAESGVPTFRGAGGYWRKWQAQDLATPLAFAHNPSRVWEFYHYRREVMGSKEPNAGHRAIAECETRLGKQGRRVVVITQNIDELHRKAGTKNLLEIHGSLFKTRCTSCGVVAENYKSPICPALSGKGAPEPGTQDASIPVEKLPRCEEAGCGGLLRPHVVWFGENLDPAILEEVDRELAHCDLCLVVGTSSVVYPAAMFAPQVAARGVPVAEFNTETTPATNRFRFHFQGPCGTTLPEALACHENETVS
Sequence of Protein Tat (P04608 whole entry): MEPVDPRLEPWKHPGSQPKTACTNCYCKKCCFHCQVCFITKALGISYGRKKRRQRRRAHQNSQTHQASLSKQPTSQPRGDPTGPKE

What is called IC50 is the concentration needed to halve the response being measured. In the case of `O=C(NCc1ccco1)c1cc2n(n1)C(C(F)(F)F)CC(c1ccc(Cl)c(Cl)c1)N2` (configuration not stated), the EC50 is 3.86 µM (active) in [1] and 7.67 µM (active) in [2]. Further, the IC50 in [3] is > 100 µM (active).
For the molecule `CCN1CCC(C(N)=O)CC1`, the IC50 in assay [4] is > 50 µM (not active).
Regarding `Cc1c(NC(=O)c2ccc(NC(=O)C3CC3)cc2)cccc1C(=O)O`, the IC50 is 43.8 µM (active) in assay [5], 25.8 µM (active) in assay [6], 18.5 µM (active) in assay [7] and 6.21 µM (active) in [9]. The AC50 in [8] was 10.7 µM (active).
`CC(=O)[C@@H]1[C@@H]2C(=O)N(c3ccc(F)c(Cl)c3)C(=O)[C@@H]2C2c3ccccc3C=CN21` (some centres not stated): the IC50 in assay [10] is > 100 µM (not active).
On to `COc1ccc(OC2C=CC(C#Cc3ccccc3)OC2CO)cc1` (configuration not stated), for which, in [11], the AC50 was 3.98 µM (inconclusive).
As for `O=C(CCNC(=O)c1ccccc1Cl)Nc1ccc(Br)c(C(F)(F)F)c1`, in assay [12], the EC50 was > 67.5 µM (inactive). Also, the IC50 in [13] is > 67.5 µM (inactive).
In the case of `CN(C)CCCN(C(=O)c1ccc(S(=O)(=O)N2CCCCCC2)cc1)c1nc2cc3c(cc2s1)OCCO3`, the IC50 is 4.63 µM (active) in assay [14], > 20 µM (inactive) in assay [15] and 4.41 µM (active) in assay [17]. The results for the EC50 in assay [1], in assay [2] and in assay [16] were < 0.1 µM (active), > 60 µM (not active) and 0.201 µM (active), respectively.
For `CC(=O)NC(=S)Nc1ccccc1C(=O)NC1CCCCC1`, the EC50 in [12] is > 67.6 µM (inactive). In addition, the IC50 in assay [13] was > 67.6 µM (inactive).
Consider `O=C(N/N=C/c1ccc[nH]1)c1cccnc1`, for which the IC50 in assay [18] and in assay [19] was > 100 µM (active) throughout.
In the case of `O=c1cc(CN2CCN(C/C=C/c3ccccc3)CC2)c2cc(O)ccc2o1`, the EC50 in assay [1] was < 0.1 µM (active); in assay [2], > 60 µM (not active); in assay [16] it was 0.101 µM (active).
Turning to `Cc1ccc(C(=O)OCc2cc3ccccc3nc2O)cc1`, the IC50 in assay [20] was > 93.1 µM (not active).
